Values of other authors in article PMC9747611 (Hypertension Research, 2022).

Tested on: aldosterone synthase
Conditions: cited from earlier work

Structure (SMILES): N#Cc1ccc([C@H]2CCc3cncn32)c(F)c1 [LCI699]
- increase in 11-deoxycorticosterone levels: up to 10 fold
